Measurements: ChEMBL document CHEMBL5500412, “Discovery of Highly Selective, Potent, Covalent, and Orally Bioavailable Factor XIIa Inhibitors for the Treatment of Thrombo-Inflammation” (J Med Chem, 2024)
Calls of active or inactive are those of the source. No cut-off for these calls is given here.

Experiments:
[1] = target: T1, Coagulation factor XII (Homo sapiens, UniProt P00748); test: Inhibition of FXIIa (unknown origin) using H-D-Pro-Phe-Arg-pNA as substrate incubated for 20 mins followed by substrate addition by spectrophotometric analysis
T1 sequence (P00748 whole entry): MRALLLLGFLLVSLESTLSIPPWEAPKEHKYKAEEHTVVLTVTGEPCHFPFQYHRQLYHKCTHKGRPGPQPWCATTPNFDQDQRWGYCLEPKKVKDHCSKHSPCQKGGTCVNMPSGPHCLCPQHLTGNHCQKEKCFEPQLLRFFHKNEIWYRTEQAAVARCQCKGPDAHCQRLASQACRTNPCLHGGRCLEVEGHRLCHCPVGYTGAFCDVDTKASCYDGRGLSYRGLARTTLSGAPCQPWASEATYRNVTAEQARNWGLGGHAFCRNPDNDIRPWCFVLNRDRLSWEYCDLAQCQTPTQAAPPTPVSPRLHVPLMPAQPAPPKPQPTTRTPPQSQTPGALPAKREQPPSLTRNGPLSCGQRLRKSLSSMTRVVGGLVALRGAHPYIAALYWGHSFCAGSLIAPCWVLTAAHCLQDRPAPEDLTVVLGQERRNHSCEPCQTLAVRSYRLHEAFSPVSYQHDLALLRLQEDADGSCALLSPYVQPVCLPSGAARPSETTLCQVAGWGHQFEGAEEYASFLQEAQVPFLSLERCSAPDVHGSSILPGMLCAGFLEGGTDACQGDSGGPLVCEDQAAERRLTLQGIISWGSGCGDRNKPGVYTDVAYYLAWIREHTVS

[2] = target: Prothrombin (Homo sapiens, UniProt P00734); test: Inhibition of thrombin (unknown origin) using H-D-Phe-Pip-Arg-pNA-2HCl as substrate incubated for 20 mins followed by substrate addition by spectrophotometric analysis
[3] = target: Plasma kallikrein (Homo sapiens, UniProt P03952); test: Inhibition of PKal (unknown origin) using H-D-Pro-Phe-Arg-pNA-2HCl as substrate incubated for 20 mins followed by substrate addition by spectrophotometric analysis
Plasma kallikrein, sequence (P03952 20-390 limits assumed): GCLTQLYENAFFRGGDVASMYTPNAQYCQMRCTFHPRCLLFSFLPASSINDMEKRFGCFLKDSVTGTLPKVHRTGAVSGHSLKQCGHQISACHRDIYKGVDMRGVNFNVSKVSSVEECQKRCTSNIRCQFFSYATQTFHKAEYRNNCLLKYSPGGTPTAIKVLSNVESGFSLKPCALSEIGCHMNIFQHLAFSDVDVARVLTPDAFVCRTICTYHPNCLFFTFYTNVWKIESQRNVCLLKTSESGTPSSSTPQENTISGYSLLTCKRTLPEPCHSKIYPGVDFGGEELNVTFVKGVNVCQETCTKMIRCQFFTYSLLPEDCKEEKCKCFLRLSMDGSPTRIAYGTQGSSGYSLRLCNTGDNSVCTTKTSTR
Plasma kallikrein, sequence (P03952 391-638 limits assumed): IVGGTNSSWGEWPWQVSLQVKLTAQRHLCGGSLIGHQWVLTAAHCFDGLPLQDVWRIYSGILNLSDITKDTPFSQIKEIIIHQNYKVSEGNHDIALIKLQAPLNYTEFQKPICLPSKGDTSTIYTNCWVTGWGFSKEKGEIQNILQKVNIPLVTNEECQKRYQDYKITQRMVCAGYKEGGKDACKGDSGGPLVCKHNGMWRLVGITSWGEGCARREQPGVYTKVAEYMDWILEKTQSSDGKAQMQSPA

[4] = target: Coagulation factor XI (Homo sapiens, UniProt P03951); test: Inhibition of FXIa (unknown origin) using p-Glu-Pro-Arg-pNA.HCl as chromogenic substrate incubated for 20 mins followed by substrate addition by spectrophotometric analysis
Coagulation factor XI, sequence (P03951 19-387 limits assumed): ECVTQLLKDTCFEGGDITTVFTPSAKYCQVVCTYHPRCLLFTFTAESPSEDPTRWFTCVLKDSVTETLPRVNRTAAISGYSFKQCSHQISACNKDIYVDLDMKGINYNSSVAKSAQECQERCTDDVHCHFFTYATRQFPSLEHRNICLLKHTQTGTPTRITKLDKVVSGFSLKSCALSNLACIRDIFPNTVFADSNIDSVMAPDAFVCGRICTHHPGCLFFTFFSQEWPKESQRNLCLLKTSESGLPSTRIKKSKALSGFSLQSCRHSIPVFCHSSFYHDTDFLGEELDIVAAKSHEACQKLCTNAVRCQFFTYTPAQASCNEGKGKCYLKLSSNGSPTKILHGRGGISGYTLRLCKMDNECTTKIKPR
Coagulation factor XI, sequence (P03951 388-625 limits assumed): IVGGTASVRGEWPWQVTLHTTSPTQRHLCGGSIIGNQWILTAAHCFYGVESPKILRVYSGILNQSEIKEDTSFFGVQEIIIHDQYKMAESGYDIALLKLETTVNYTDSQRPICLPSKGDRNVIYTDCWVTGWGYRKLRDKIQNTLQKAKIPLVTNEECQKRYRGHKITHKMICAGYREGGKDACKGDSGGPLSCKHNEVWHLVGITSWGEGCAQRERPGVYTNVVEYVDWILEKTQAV

[5] = target: Trypsin (Homo sapiens, UniProt P07477+P07478+P35030); test: Inhibition of trypsin (unknown origin) using Bz-lle-Glu(gamma-OR)-Gly-Arg-pNA.HCl as chromogenic substrate incubated for 20 mins followed by substrate addition by spectrophotometric analysis; format: protein assay
[6] = target: Chymotrypsin (Homo sapiens, UniProt Q99895+P17538+P40313+Q6GPI1); test: Inhibition of Chymotrypsin (unknown origin) using N-Suc-Ala-Ala-Pro-Phe-pNA as chromogenic substrate incubated for 20 mins followed by substrate addition by spectrophotometric analysis; format: protein assay
[7] = target: Tissue-type plasminogen activator (Homo sapiens, UniProt P00750); test: Inhibition of tPA (unknown origin) using H-D-lle-Pro-Arg-pNA-2HCl as chromogenic substrate incubated for 20 mins followed by substrate addition by spectrophotometric analysis
Tissue-type plasminogen activator, sequence (P00750 whole entry): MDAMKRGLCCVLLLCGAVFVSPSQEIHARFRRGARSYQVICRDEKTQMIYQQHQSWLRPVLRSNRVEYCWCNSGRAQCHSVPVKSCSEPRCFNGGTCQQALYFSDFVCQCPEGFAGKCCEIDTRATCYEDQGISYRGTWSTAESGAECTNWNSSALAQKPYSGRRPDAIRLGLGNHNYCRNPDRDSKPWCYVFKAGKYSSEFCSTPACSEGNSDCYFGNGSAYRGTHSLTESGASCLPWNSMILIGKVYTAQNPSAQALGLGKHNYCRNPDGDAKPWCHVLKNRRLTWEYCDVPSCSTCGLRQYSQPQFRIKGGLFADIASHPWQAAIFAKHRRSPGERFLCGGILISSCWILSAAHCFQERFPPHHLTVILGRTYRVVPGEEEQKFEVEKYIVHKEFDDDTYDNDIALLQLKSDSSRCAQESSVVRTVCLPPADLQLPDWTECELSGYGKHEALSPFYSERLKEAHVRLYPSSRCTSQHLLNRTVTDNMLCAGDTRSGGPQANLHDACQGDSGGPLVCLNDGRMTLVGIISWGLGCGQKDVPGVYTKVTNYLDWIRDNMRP

[8] = Selectivity index, ratio of IC50 for thrombin (unknown origin) to IC50 for FXIIa (unknown origin)
[9] = Selectivity index, ratio of IC50 for PKal (unknown origin) to IC50 for FXIIa (unknown origin)
[10] = Selectivity index, ratio of IC50 for FXIa (unknown origin) to IC50 for FXIIa (unknown origin)
[11] = Selectivity index, ratio of IC50 for FXa (unknown origin) to IC50 for FXIIa (unknown origin)
[12] = Selectivity index, ratio of IC50 for trypsin (unknown origin) to IC50 for FXIIa (unknown origin)
[13] = Selectivity index, ratio of IC50 for chymotrypsin (unknown origin) to IC50 for FXIIa (unknown origin)
[14] = Selectivity index, ratio of IC50 for plasmin (unknown origin) to IC50 for FXIIa (unknown origin)
[15] = Selectivity index, ratio of IC50 for tPA (unknown origin) to IC50 for FXIIa (unknown origin)
[16] = target: T2, Coagulation factor XII (Homo sapiens) (UniProt P00748); test: Covalent inhibition of FXIIa (unknown origin) at 20 to 40 nM measured after 10 mins; conditions: dose 20-40 nM
T2 sequence (whole entry): T1 sequence (P00748 whole entry)

[17] = target: T1, Coagulation factor XII; test: Binding affinity to FXIIa (unknown origin) assessed as inhibition constant using H-D-Pro-Phe-Arg-pNA.2HCl as substrate by spectrophotometric analysis
[18] = target: T2, Coagulation factor XII (Homo sapiens); test: Binding affinity to FXIIa (unknown origin) assessed as inactivation rate using H-D-Pro-Phe-Arg-pNA.2HCl as substrate by spectrophotometric analysis
[19] = target: T2, Coagulation factor XII (Homo sapiens); test: Inhibition of FXIIa (unknown origin) using H-D-Pro-Phe-Arg-pNA as substrate preincubated for 20 mins followed by 100 fold dilution upto 120 mins then substrate addition for 60 mins by jump dilution assay; conditions: time <= 200.0 min
[20] = target: T2, Coagulation factor XII (Homo sapiens); test: Binding affinity to FXIIa (unknown origin) assessed as Kinact/Ki using H-D-Pro-Phe-Arg-pNA.2HCl as substrate by spectrophotometric analysis
[21] = test system: RAW264.7; test: Antiinflammatory activity in mouse RAW264.7 cells assessed as inhibition of LPS-induced IL-1 beta expression at 10 uM preincubated for 12 hrs followed by LPS stimulation and measured after 12 hrs by real time quantitative RT-PCR assay; format: functional, cell-based; conditions: time 24.0 hrs
[22] = test system: RAW264.7; test: Antiinflammatory activity in mouse RAW264.7 cells assessed as inhibition of LPS-induced IL-6 expression at 10 uM preincubated for 12 hrs followed by LPS stimulation and measured after 12 hrs by real time quantitative RT-PCR assay; format: functional, cell-based; conditions: time 24.0 hrs
[23] = test system: Plasma; test: Anticoagulant activity in human plasma assessed as prolongation of activated partial thromboplastin time at 300 uM incubated for 2 mins by aPTT reagent based assay relative to control; format: functional
[24] = test system: Plasma; test: Anticoagulant activity in human plasma assessed as prolongation of […] time at 300 uM incubated for 2 mins by PT reagent based assay relative to control; format: functional
[25] = test system: Plasma; test: Anticoagulant activity in human plasma assessed as prolongation of activated partial thromboplastin time incubated for 2 mins by aPTT reagent based assay; format: functional
[26] = test system: Plasma; test: Anticoagulant activity in non-activated human plasma at 10 to 25 uM measured after 30 mins; format: functional, cell-free; conditions: dose 10-25 µM

IC50 [1]: 35 nM
IC50 [2]: 360 nM
IC50 [3]: > 25000 nM
IC50 [4]: > 25000 nM
IC50 [5]: > 5000 nM
IC50 [6]: > 5000 nM
IC50 [7]: > 5000 nM
Ratio IC50 [8]: 10
Ratio IC50 [9]: > 710
Ratio IC50 [10]: > 710
Ratio IC50 [11]: > 140
Ratio IC50 [12]: > 140
Ratio IC50 [13]: > 140
Ratio IC50 [14]: > 140
Ratio IC50 [15]: > 140
inhibition [16]: Active
Ki [17]: 43.5 nM
Kinact [18]: 0.026 min⁻¹
inhibition [19]: inactive
K [20]: 5.96 10^5/M/min
Structure (SMILES): Nc1nc(-c2ccccn2)nn1C(=O)c1cccc2ccccc12
Activity [21]: Active
Activity [22]: Active
Activity [23]: 303%
Activity [24]: 17%
EC1.5 [25]: 145 µM
Activity [26]: inactive
